{
  "source": "patent US20020004519A1",
  "about": "“METHOD FOR REDUCING CHLORIDE SECETION BY INTESTINAL EPITHLIAL CELLS IN SITU” (priority 1998, published 2002)",
  "key": {"T84 cells": {"tested_on": "T84 cells", "test": "Electrogenic Cl- secretion (short circuit current, Isc) in confluent T84 monolayers", "format": "cell-based, human", "settings": "for Inhibition of cAMP and Ca++ elicited Cl- secretion: comparison of compounds tested"}, "[1]": {"tested_on": "cAMP- and Ca++-sensitive basolateral K+ channels of T84 cells", "test": "Basolateral K+ conductance in T84 monolayers permeabilized apically with amphotericin B", "format": "cell-based, human", "settings": "for Time course of K+ transport after treatment with forskolin and carbachol: forskolin 10 μM (cAMP agonist), carbachol 100 μM (Ca++ agonist)", "procedure": "Selective mebrane Permeabilization and Measurement of Potassium Conductance of the Basolateral Membrane. The basolateral potassium conductance was measured using the technique developed by Dawson and co-workers. A potassium gradient (mucosal to serosal) was first established across the monolayer using asymmetric mucosal and serosal buffers containing K^+ as the sole permeant ion. The addition of amphotericin B (20 μM) to the mucosal reservoir forms conductive pores in the apical membrane, and thus removes all resistance to transepithelial potassium movement across this membrane. Thus, under the conditions of the experiment, in which the monolayer is short circuited (i.e., voltage-clamped at zero potential) and the transepithehal potassium gradient is constant, the amphotericin-dependent Isc becomes a measure of the rate of the transepithelial potassium flux across basolateral membranes. Changes in short circuit current (Isc), then represent changes in basolateral K^+ conductances (gK). Isc and K^+ conductances were measured using calomel electrodes, 3M KCI-agar bridges, and a voltage clamp (University of Iowa, Iowa City). To generate a voltage-current channel relationships, currents were elicited by 1 sec test potentials from −80 to +80 in 10 mV increments in the asymmetrical high K^+ gluconate solution. Calculation of basolateral membrane K^+ permeability: Membrane permeabilities were calculated according to the formula:\n^pK=(cm/s)=^JK(mM/cm^2·s)/Δ[K^+](mM/cm^3)\nwhere Δ [K^+] is equal to the difference in K^+ concentration (135 mM) between the asymmetric apical and basolateral bathing solutions. Maximal Isc values were converted into K^+ fluxes by dividing by the Faraday constant F (96,500 coulombs/mol) as previously described (Huflejt et al., J. Clin. Invest. 93: 1900-1910 (1994)).\nBasolateral K+ transport was examined in T84 monolayers permeabilized apically by pretreatment with amphotericin B. Apical and basolateral buffers contained K+ as the sole permeant ion. All studies were performed with a 135 mM basolaterally directed K+ gradient. This method has been utilized previously to examine both Cl− and K+ transport in T84 cells and HT29-Cl0.16E cells. Briefly, ion conductances in the luminal or basolateral membranes of confluent T84 cell monolayers can be assessed separately by selectively permeabilizing the apical or basolateral membrane using the ionophore amphotericin B. This artificially removes all electrical resistance to ion transport across the plasma membrane containing pores formed by amphotericin B. As a result, the intact contralateral plasma membrane becomes rate limiting for transepithelial ion transport. Agonist-dependent changes in ion conductances can be assessed directly either as transepithelial short circuit current (Isc) in the presence of established ion gradients, or as transepithelial conductance (G) in the presence of established transepithelial potentials."}, "[2]": {"tested_on": "basolateral K+ channels of T84 cells", "test": "86Rb efflux from T84 monolayers as indicator of basolateral K+ channel activity", "format": "cell-based, human", "procedure": "J. Physiol (Cell Physiol. 28):[…]-[…] (1990). […] One ml samples were obtained and replaced from the basolateral reservoir. […] Finally, the cell monolayer was rinsed, cut with its support from the polystyrene ring, and the residual cell-associated radioactivity was determined. Monolayers were maintained at 37° C. in room air throughout the study. ^86Rb was counted by scintillation counting and normalized to percent total uptake as previously described ([…], et al, Am. J. Physiol. (Cell Physiol. 28):[…]-[…] (1990)."}, "[3]": {"tested_on": "apical membrane Cl- channels of T84 cells", "test": "125I efflux from T84 monolayers as indicator of apical Cl- channel activity", "format": "cell-based, human", "procedure": "J. Physiol. (Cell Physiol. 28):[…]-[…] (1990). […] After washing twice in fresh HBSS, 0.5 ml samples were obtained every two min from the apical reservoir and replaced with fresh HBSS. […] Finally, the cell monolayer was rinsed, cut with its support from the polystyrene ring, and the residual cell-associated radioactivity was determined. Monolayers were maintained at 37° C. in room air throughout the study. ^125I was counted by gamma counting and normalized to percent total uptake as previously described ([…], et al, Am. J. Physiol. (Cell Physiol 28):[…]-[…] (1990)."}, "[4]": {"tested_on": "basolateral NaK2Cl cotransporters of T84 cells", "test": "Bumetanide-sensitive 86Rb uptake in T84 monolayers", "format": "cell-based, human", "procedure": "Confluent monolayers on 5 cm^2 Transwell inserts were incubated for 30 minutes in HBSS at 37° C. […] Monolayers were cut from their inserts, placed into scintillation vials, and counted using standard methods."}, "[5]": {"tested_on": "apical membrane Cl- channels of T84 cells", "test": "Apical Cl- conductance in T84 monolayers permeabilized basolaterally with amphotericin B", "format": "cell-based, human", "settings": "forskolin 10 μM; symmetrical Cl- 142 mM"}, "rabbit colonic mucosa": {"tested_on": "rabbit colonic mucosa", "test": "Ussing chamber studies using rabbit colonic mucosa", "settings": "30 μM; forskolin 10 μM", "procedure": "4 male, New Zealand rabbits (2.5 kg) were anesthetized by an intravenous injection of pentobarbital (0.5 ml/kg). A 15 cm length of distal colon was removed and opened longitudinally. […] The volume of fluid on each side of the mucosa was 7 ml. Potential difference and Isc were monitored continuously and registered every 10 minutes."}, "[6]": {"tested_on": "cholera toxin-induced intestinal fluid secretion", "format": "in vivo, Balb/C mice"}, "[7]": {"settings": "33 μM during final 30 min of preincubation"}},
  "data": [
    {"compound": "OC(c1ccccc1)(c1ccccc1)c1ccccc1Cl", "note": "[2-chlorophenyl-bis-phenyl methanol]", "values": [
      {"measurement": "Inhibition of cAMP and Ca++ elicited Cl- secretion", "setting": "T84 cells", "result": "effective at inhibiting chloride secretion"},
      {"measurement": "Time course of K+ transport after treatment with forskolin and carbachol", "setting": "[1]", "result": "Nearly identical results"}
    ]},
    {"compound": "[Ba+2].[Cl-].[Cl-]", "note": "[BaCl2]", "values": [
      {"measurement": "Cl- secretory response (Isc as percentage of control) to the Ca++-dependent agonist carbachol", "setting": "T84 cells", "result": "no apparent affect"},
      {"measurement": "Cl- secretory response (Isc as percentage of control) to the cAMP mediated agonist VIP", "setting": "T84 cells", "result": "strongly inhibited"},
      {"measurement": "Effect on K+ transport induced by subsequent addition of carbachol", "setting": "[1]; carbachol 100 μM, same monolayers, BaCl2 3 mM", "result": "no detectable effect"},
      {"measurement": "Inhibition of the cAMP-sensitive IK elicited by forskolin", "setting": "[1]; forskolin 10 μM, BaCl2 3 mM in basolateral reservoirs", "result": "greater than 70%"}
    ]},
    {"compound": "Clc1ccccc1C(c1ccccc1)(c1ccccc1)n1ccnc1", "note": "[clotrimazole]", "values": [
      {"measurement": "Cl- secretory response (Isc as percentage of control) to the Ca++-dependent agonist carbachol", "setting": "T84 cells", "result": "inhibited"},
      {"measurement": "Cl- secretory response (Isc as percentage of control) to the cAMP mediated agonist VIP", "setting": "T84 cells", "result": "inhibited"},
      {"measurement": "Secretory response to agonists of sequential steps in the cAMP signalling cascade", "setting": "T84 cells; 33 μM preincubation, 5 μM VIP, 10 μM forskolin or 3 mM 8Br-cAMP", "result": "inhibited"},
      {"measurement": "Cl- secretory response to Ca++-dependent agonists", "setting": "T84 cells; 33 μM pretreatment, carbachol 100 μM, thapsigargin 5 μM or ionomycin 10 μM", "result": "inhibited strongly"},
      {"measurement": "IC50", "setting": "T84 cells; Homo sapiens, T84, read-out: IC50 for inhibiting the secretory response to E. Coli heat-stabile toxin", "result": 15, "unit": "µM"},
      {"measurement": "Reversibility of inhibition of Cl- secretion", "setting": "T84 cells; after 60 min recovery in the presence of 0.01 mg/ml bovine serum albumin, n=4", "result": "96±2", "unit": "%"},
      {"measurement": "Apparent potency of inhibition at a fixed time point by side of application", "setting": "T84 cells; basolateral versus apical application", "result": "greater when applied basolaterally than apically"},
      {"measurement": "Inhibition of cAMP and Ca++ elicited Cl- secretion", "setting": "T84 cells", "result": "most potent inhibitor tested"},
      {"measurement": "Potentiation of the Cl- secretory responses to either agonist at low doses", "setting": "T84 cells; low doses (=10^-7 or less), VIP or carbachol", "result": "5-10%"},
      {"measurement": "86Rb loading of the cells", "setting": "[2]; [7]", "result": "did not alter"},
      {"measurement": "Reduction of the rate constant for VIP-stimulated 86Rb efflux", "setting": "[2]; 33 μM, VIP 5 μM", "result": 87, "unit": "%"},
      {"measurement": "Baseline and Ca++ stimulated 86RB efflux", "setting": "[2]; T84 cells in the presence of VIP or thapsigargin, compared to cells not treated, FIG. 2", "result": "significantly inhibited"},
      {"measurement": "Rate constant for VIP-stimulated 86Rb efflux", "setting": "[2]; monolayers treated with clotrimazole 33 μM, VIP 5 μM, n=2 in triplicate, untreated 0.0465", "result": 0.0062, "unit": "% uptake/minute"},
      {"measurement": "Rate constant for thapsigargin-stimulated 86Rb efflux", "setting": "[2]; monolayers treated with clotrimazole 33 μM, thapsigargin 5 μM, n=2, untreated 0.048", "result": 0.011, "unit": "% uptake/minute"},
      {"measurement": "125I loading of the cells", "setting": "[3]; [7]", "result": "did not alter"},
      {"measurement": "Time course of 125I efflux from monolayers treated with VIP", "setting": "[3]; 33 μM pretreatment, VIP", "result": "little or no effect"},
      {"measurement": "Rate constant for 125I efflux", "setting": "[3]; monolayers treated with clotrimazole (33 μM), VIP, n=2 in duplicate, untreated 0.0645", "result": 0.0637, "unit": "% uptake/minute"},
      {"measurement": "Reduction of the total amount of 86Rb uptake", "setting": "[4]; 33 μM for 30 min, VIP, mean±SEM, n=6", "result": "53.6±5.8", "unit": "%"},
      {"measurement": "Effect on the fractional component of 86Rb uptake that was bumetanide-sensitive", "setting": "[4]; 33 μM for 30 min, bumetanide 10 μM", "result": "no effect"},
      {"measurement": "Bumetanide-sensitive fraction of 86Rb uptake", "setting": "[4]; 0.5 h, 33 µM", "result": "88+3.2 % total uptake"},
      {"measurement": "Time course of K+ transport after treatment with forskolin and carbachol", "setting": "[1]", "result": "significantly inhibited"},
      {"measurement": "Forskolin- or thapsigargin-stimulated Cl- conductances", "setting": "[5]", "result": "no detectable effect"},
      {"measurement": "Time course of forskolin induced Isc", "setting": "rabbit colonic mucosa", "result": "inhibited strongly"},
      {"measurement": "Reduction of intestinal fluid secretion induced by cholera toxin", "setting": "[6]; 5 hours", "result": 86, "unit": "%"},
      {"measurement": "Intestinal secretion in the absence of cholera toxin", "setting": "[6]; mouse, in vivo", "result": "no effect"}
    ]},
    {"compound": "Clc1ccc(COC(Cn2ccnc2)c2ccc(Cl)cc2Cl)cc1", "note": "(centres unmarked) [econazole]", "values": [
      {"measurement": "Inhibition of cAMP and Ca++ elicited Cl- secretion", "setting": "T84 cells", "result": "effective at inhibiting chloride secretion"}
    ]},
    {"compound": "CC(=O)N1CCN(c2ccc(OCC3COC(Cn4ccnc4)(c4ccc(Cl)cc4Cl)O3)cc2)CC1", "note": "(centres unmarked) [ketoconazole]", "values": [
      {"measurement": "Inhibition of cAMP and Ca++ elicited Cl- secretion", "setting": "T84 cells", "result": "effective at inhibiting chloride secretion"}
    ]},
    {"compound": "Clc1ccc(COC(Cn2ccnc2)c2ccc(Cl)cc2Cl)c(Cl)c1", "note": "(centres unmarked) [miconazole]", "values": [
      {"measurement": "Inhibition of cAMP and Ca++ elicited Cl- secretion", "setting": "T84 cells", "result": "effective at inhibiting chloride secretion"}
    ]},
    {"compound": "charybdotoxin", "values": [
      {"measurement": "Cl- secretory response (Isc as percentage of control) to the Ca++-dependent agonist carbachol", "setting": "T84 cells", "result": "strongly inhibited"},
      {"measurement": "Cl- secretory response (Isc as percentage of control) to the cAMP mediated agonist VIP", "setting": "T84 cells", "result": "minimal affects"},
      {"measurement": "Inhibition of the carbachol-induced Ca++ IK", "setting": "[1]; carbachol first, pretreatment with charybdotoxin 100 nM", "result": 50, "unit": "%"},
      {"measurement": "Effect on K+ transport induced by subsequent addition of forskolin", "setting": "[1]; charybdotoxin 100 nM", "result": "no detectable effect"}
    ]}
  ]
}
